Columns and labels:
[1] = tested on: adult FVB mice; test: Mouse model of acute noise-induced hearing loss (ABR, DPOAE, synaptic ribbon counts); settings: no noise trauma; vs saline + noise and Afatinib + noise groups
From the text: Subcutaneous needle electrodes were inserted behind the pinna (inverting), vertex of the skull (non-inverting) and base of the tail (ground). Tone bursts of 5 ms duration with 0.5 ms cosine-squared envelopes delivered at a rate of 21 stimuli per second with alternating polarity were generated using BioSigRZ software and RZ6 multi I/O processor system (Tucker-Davis Technologies, FL). Stimuli were presented as open field via a speaker (MF1; TDT, FL) placed 10 cm in front of the pinna of the animal. […] Stimulus intensity was decreased in 5 dB increments, starting from 100 db SPL to 0 dB SPL. […] Before the start of every session, stimulus presenting speaker (MF1) was calibrated with a ¼″ microphone (PCB-378C10; PCB Piezotronics, NY) that was also placed 10 cm in front of the speaker.
Another group of mice were administered saline. […] ABR and DPOAE thresholds were recorded prior, 7 days, or 14 days post noise exposure.
These groups of mice were additionally tested for DPOAE threshold.

[2] = tested on: EGFR downstream signaling pathways (AKT and MAPK); test: Western blotting of EGFR downstream kinases in organ of Corti after transtympanic injection; type: in vivo, mouse; settings: middle ear trans tympanic injection, 20 mg/ml; P28 FVB mice
Experimental: […]. […] Quarter 2 in the flow plot presents cells that are positive for EGFR. (B) P28 FVB mice were injected transtympanically with DMSO or 20 mg/ml of AG1478. Western blotting was performed on pooled organs of Corti to detect the phosphorylation of EGFR downstream kinases. (C) Zebrafish not injected or injected with 2 ng of scrambled or EGF ligand (EGFL) specific morpholinos (Gene Tools). […]. Quantification of the HCs was performed in SO3, O1 and O2 neuromasts. P<0.0001 versus the corresponding control (One-way ANOVA). […] (D) PCR from scrambled and EGFL morphants.
Now referring to FIGS. 2A-D, to determine whether functional EGFR is expressed in the adult cochlea, flow cytometry was used to identify epithelial cells that express EGFR protein in the adult cochlea (FIG. 2A). In P28 FVB mice, excluding dead cells and those with autofluorescence, we detected 1140±88 EGFR+; EpCAM+ (an epithelial cell marker) cells from one cochlea (Mean±SEM, n=4).

[3] = tested on: zebrafish neuromast hair cells; test: Zebrafish cisplatin ototoxicity, neuromast hair cell count; type: in vivo

In the case of `CN(C)C/C=C/C(=O)Nc1cc2c(Nc3ccc(F)c(Cl)c3)ncnc2cc1O[C@H]1CCOC1` [Afatinib], the “DPOAE threshold, Afatinib without noise trauma” value [1] was “reduced DPOAE threshold at all f2 frequencies”.
`COc1cc2ncnc(Nc3cccc(Cl)c3)c2cc1OC` [AG1478] was tested, and the “EGFR downstream signaling (AKT and MAPK) in the organ of Corti” value [2] was “significantly suppressed”.
With `O=C(CCCCCCC(=O)Nc1ccccc1)NO` [Vorinostat] the “protection against CIHL” value ([3]; doses of 0.002, 0.0183 and 0.165 μM, 1 hour pre-incubation, then 400 µM cisplatin for 4 hours) was “showed protection against CIHL” and the “Cisplatin damage in HCs at SO3 and O1-2 neuromasts” value ([3]; pretreated with various doses) was “significantly reduced Cisplatin damage”.

— patent US20240350492A1, “Methods for the Prevention and Treatment of Hearing Loss” (Ting Therapeutics LLC, priority 2020, published 2024)
